Experimental data reported in patent US10202360B2 (CELGENE QUANTICEL RESEARCH, INC., priority 2016, dated 2019).

Molecular target: CREBBP (Homo sapiens (Human), UniProt Q92793)
Experiment: In vitro enzyme inhibition assay - CREBBP inhibition (AlphaScreen, biotinylated H4-tetraacetyl peptide)
Format: binding
Details: Table 28; AlphaScreen, H4-tetraacetyl peptide
Procedure, shortened: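 Displacement of 20 nM biotinylated tetraacetyl-H4 peptide from 50 nM E. coli-expressed His-CREBBP, measured by AlphaScreen after bead equilibration for 2 h.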

CREBBP, sequence (Q92793 1081-1197): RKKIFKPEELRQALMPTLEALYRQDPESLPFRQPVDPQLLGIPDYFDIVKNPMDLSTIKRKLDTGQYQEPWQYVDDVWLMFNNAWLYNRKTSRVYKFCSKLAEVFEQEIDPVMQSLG

| Compound | IC50 [nM] |
| --- | --- |
| Cc1cccc(C#N)c1Oc1nc(NS(=O)(=O)C(C)C)cc(-c2cc(C)c(=O)n(C)c2)n1 [Example 24, Propane-2-sulfonic acid [2-(2-cyano-6-methyl-phenoxy)-6-(1,5-dimethyl-6-oxo-1,6-dihydro-pyridin-3-yl)-pyrimidin-4-yl]-amide] | < 500 |
| CCCS(=O)(=O)Nc1cc(-c2cc(C)c(=O)n(C)c2)nc(Oc2c(C)cccc2C)n1 [Example 80, N-(6-(1,5-dimethyl-6-oxo-1,6-dihydropyridin-3-yl)-2-(2,6-dimethylphenoxy)pyrimidin-4-yl)propane-1-sulfonamide] | < 500 |
| Cc1cc(-c2cc(S(C)(=O)=O)nc(Oc3ccc(F)cc3F)n2)cn(C)c1=O [Example 132, 5-[2-(2,4-Difluoro-phenoxy)-6-methanesulfonyl-pyrimidin-4-yl]-1,3-dimethyl-1H-pyridin-2-one] | < 500 |
| CCS(=O)(=O)Nc1nc(Oc2c(C)cccc2Cl)nc(-c2ccc(=O)n(C)c2)n1 [Example 179, Ethanesulfonic acid [4-(2-chloro-6-methyl-phenxoy)-6-(1-methyl-6-oxo-1,6-dihydro-pyridin-3-yl)-[1,3,5]triazin-2-yl]-amide] | < 500 |
| CCCS(=O)(=O)Nc1cc(-c2ccc(=O)n(C)c2)nc(Oc2c(C)cc(Cl)cc2Cl)n1 [Example 31, Propane-1-sulfonic acid [2-(2,4-dichloro-6-methyl-phenoxy)-6-(1-methyl-6-oxo-1,6-dihydro-pyridin-3-yl)-pyrimidin-4-yl]-amide] | < 500 |
| CCCCS(=O)(=O)Nc1cc(-c2cc(C)c(=O)n(C)c2)nc(Oc2cnn(C)c2)n1 [Example 74, N-(6-(1,5-dimethyl-6-oxo-1,6-dihydropyridin-3-yl)-2-((1-methyl-1H-pyrazol-4-yl)oxy)pyrimidin-4-yl)butane-1-sulfonamide] | < 500 |
| CCCS(=O)(=O)Nc1nc(Oc2c(C)cccc2F)nc(-c2ccc(=O)n(C)c2)n1 [Example 177, Propane-1-sulfonic acid [4-(2-fluoro-6-methyl-phenoxy)-6-(1-methyl-6-oxo-1,6-dihdyro-pyridin-3-yl)-[1,3,5]triazin-2-yl]-amide] | < 500 |
| Cc1cc(-c2cc(NS(=O)(=O)C(C)C)nc(Oc3ccc(F)cc3F)n2)cn(C(C)C)c1=O [Example 47, Propane-2-sulfonic acid [2-(2,4-difluoro-phenoxy)-6-(1-isopropyl-5-methyl-6-oxo-1,6-dihydro-pyridin-3-yl)-pyrimidin-4-yl]-amide] | 500 to 5000 |
| CCS(=O)(=O)Nc1cc(-c2ccc(=O)n(C)c2)nc(-c2ccccc2OC)n1 [Example 199, Ethanesulfonic acid [2-(2-methoxy-phenyl)-6-(1-methyl-6-oxo-1,6-dihydro-pyridin-3-yl)-pyrimidin-4-yl]-amide] | 500 to 5000 |
| CCCS(=O)(=O)Nc1cc(-c2cc(C)c(=O)n(C)c2)nc(Oc2c(C)cccc2F)n1 [Example 21, Propane-1-sulfonic acid [6-(1,5-dimethyl-6-oxo-1,6-dihydro-pyridin-3-yl)-2-(2-fluoro-6-methyl-phenoxy)-pyrimidin-4-yl]-amide] | < 500 |
| COCCn1cc(-c2cc(NS(=O)(=O)C(C)C)nc(Oc3ccc(F)cc3F)n2)cc(C)c1=O [Example 53, Propane-2-sulfonic acid {2-(2,4-difluoro-phenoxy)-6-[1-(2-methoxy-ethyl)-5-methyl-6-oxo-1,6-dihydro-pyridin-3-yl]-pyrimidin-4-yl}-amide] | 500 to 5000 |
| CCCCS(=O)(=O)Nc1cc(-c2cc(C)c(=O)n(C)c2)nc(Oc2cc(C)ccc2Cl)n1 [Example 15, Butane-1-sulfonic acid [2-(2-chloro-5-methyl-phenoxy)-6-(1,5-dimethyl-6-oxo-1,6-dihydro-pyridin-3-yl)-pyrimidin-4-yl]-amide] | < 500 |
| Cc1cccc(Cl)c1Oc1nc(NS(=O)(=O)C(C)C)nc(-c2ccc(=O)n(C)c2)n1 [Example 180, Propane-2-sulfonic acid [4-(2-chloro-6-methyl-phenoxy)-6-(1-methyl-6-oxo-1,6-dihydro-pyridin-3-yl)-[1,3,5]triazin-2-yl]-amide] | < 500 |
| Cc1cccc(C#N)c1Oc1nc(NS(=O)(=O)CCCF)cc(-c2cc(C)c(=O)n(C)c2)n1 [Example 115, 3-Fluoro-propane-1-sulfonic acid [2-(2-cyano-6-methyl-phenoxy)-6-(1,5-dimethyl-6-oxo-1,6-dihydro-pyridin-3-yl)-pyrimidin-4-yl]-amide] | < 500 |
| Cc1cccc(C)c1Oc1nc(NS(=O)(=O)C(C)C)cc(-c2cc(C)c(=O)n(C)c2)n1 [Example 71, N-(6-(1,5-dimethyl-6-oxo-1,6-dihydropyridin-3-yl)-2-(2,6-dimethylphenoxy)pyrimidin-4-yl)propane-2-sulfonamide] | < 500 |
| Cc1cccc(Cl)c1Oc1nc(NS(=O)(=O)C(C)C)cc(-c2ccc(=O)n(C)c2)n1 [Example 104, Propane-2-sulfonic acid [2-(2-chloro-6-methyl-phenoxy)-6-(1-methyl-6-oxo-1,6-dihydro-pyridin-3-yl)-pyrimidin-4-yl]-amide] | < 500 |
| CCCCS(=O)(=O)Nc1cc(-c2c[nH]c(=O)c(C)c2)nc(Oc2c(C)cccc2Cl)n1 [Example 157, Butane-1-sulfonic acid [2-(2-chloro-6-methyl-phenoxy)-6-(5-methyl-6-oxo-1,6-dihydro-pyridin-3-yl)-pyrimidin-4-yl]-amide] | < 500 |
| CCCS(=O)(=O)Nc1cc(-c2cc(C)c(=O)n(C)c2)nc(Oc2c(C)cc(F)cc2Cl)n1 [Example 99, Propane-1-sulfonic acid [2-(2-chloro-4-fluoro-6-methyl-phenoxy)-6-(1,5-dimethyl-6-oxo-1,6-dihydro-pyridin-3-yl)-pyrimidin-4-yl]-amide] | < 500 |
| CCCCS(=O)(=O)Nc1nc(Oc2c(C)cccc2F)nc(-c2ccc(=O)n(C)c2)n1 [Example 178, Butane-1-sulfonic acid [4-(2-fluoro-6-methyl-phenoxy)-6-(1-methyl-6-oxo-1,6-dihydro-pyridin-3-yl)-[1,3,5]triazin-2-yl]-amide] | < 500 |
| Cc1cccc(F)c1Oc1nc(NS(=O)(=O)C(C)C)cc(-c2cc(Cl)c(=O)n(C)c2)n1 [Example 117, Propane-2-sulfonic acid [6-(5-chloro-1-methyl-6-oxo-1,6-dihydro-pyridin-3-yl)-2-(2-fluoro-6-methyl-phenoxy)-pyrimidin-4-yl]-amide] | < 500 |
| Cc1cc(-c2cc(NS(=O)(=O)C3CC3)nc(Oc3ccc(F)cc3F)n2)cn(C)c1=O [Example 63, N-(2-(2,4-difluorophenoxy)-6-(1,5-dimethyl-6-oxo-1,6-dihydropyridin-3-yl)pyrimidin-4-yl)cyclopropanesulfonamide] | < 500 |

Next, values leading:

| IC50 [nM] | Compound |
| --- | --- |
| < 500 | CCNc1cc(-c2cc(C)c(=O)n(C)c2)nc(Oc2c(C)cccc2F)n1 [Example 295, 5-[6-Ethylamino-2-(2-fluoro-6-methyl-phenoxy)-pyrimidin-4-yl]-1,3-dimethyl-1H-pyridin-2-one] |
| < 500 | CCC[C@H](C)S(=O)(=O)Nc1cc(-c2ccc(=O)n(C)c2)nc(Oc2c(Cl)ccc(C)c2F)n1 [Example 227, (2S)-Pentane-2-sulfonic acid [2-(6-chloro-2-fluoro-3-methyl-phenoxy)-6-(1-methyl-6-oxo-1,6-dihydro-pyridin-3-yl)-pyrimidin-4-yl]-amide] |
| < 500 | Cc1cccc(F)c1Oc1nc(NCCC(C)C)cc(-c2ccc(=O)n(C)c2)n1 [Example 309, 5-[2-(2-Fluoro-6-methyl-phenoxy)-6-(3-methyl-butylamino)-pyrimidin-4-yl]-1-methyl-1H-pyridin-2-one] |
| < 500 | CCC(CC)S(=O)(=O)Nc1cc(-c2ccc(=O)n(C)c2)nc(Oc2c(F)cccc2Cl)n1 [Example 254, Pentane-3-sulfonic acid [2-(2-chloro-6-fluoro-phenoxy)-6-(1-methyl-6-oxo-1,6-dihydro-pyridin-3-yl)-pyrimidin-4-yl]-amide] |
| < 500 | COc1nc(NCc2cccnc2)cc(-c2ccc(=O)n(C)c2)n1 [Example 330, 5-{2-Methoxy-6-[(pyridin-3-ylmethyl)-amino]-pyrimidin-4-yl}-1-methyl-1H-pyridin-2-one] |
| < 500 | CCCCS(=O)(=O)Nc1cc(-c2ccc(=O)n(C)c2)nc(Oc2c(F)cccc2C2CC2)n1 [Example 240, Butane-1-sulfonic acid [2-(2-cyclopropyl-6-fluoro-phenoxy)-6-(1-methyl-6-oxo-1,6-dihydro-pyridin-3-yl)-pyrimidin-4-yl]-amide] |
| < 500 | COc1nc(NCCc2ccccc2)cc(-c2ccc(=O)n(C)c2)n1 [Example 329, 5-(2-Methoxy-6-phenethylamino-pyrimidin-4-yl)-1-methyl-1H-pyridin-2-one] |
| < 500 | CCC[C@@H](C)S(=O)(=O)Nc1cc(-c2ccc(=O)n(C)c2)nc(Oc2c(F)cccc2Cl)n1 [Example 220, (2R)-Pentane-2-sulfonic acid [2-(2-chloro-6-fluoro-phenoxy)-6-(1-methyl-6-oxo-1,6-dihydro-pyridin-3-yl)-pyrimidin-4-yl]-amide] |
| 500 to 5000 | CCCC(C)Nc1cc(-c2ccc(=O)n(C)c2)nc(OC)n1 (stereo not drawn) [Example 326, 5-[2-Methoxy-6-(1-methyl-butylamino)-pyrimidin-4-yl]-1-methyl-1H-pyridin-2-one] |
| < 500 | CCS(=O)(=O)Nc1cc(-c2ccc(=O)n(C)c2)nc(Oc2c(F)cccc2C2CC2)n1 [Example 238, Ethanesulfonic acid [2-(2-cyclopropyl-6-fluoro-phenoxy)-6-(1-methyl-6-oxo-1,6-dihydro-pyridin-3-yl)-pyrimidin-4-yl]-amide] |
| < 500 | CCC[C@H](C)S(=O)(=O)Nc1cc(-c2cc(C)c(=O)n(C)c2)nc(Oc2c(C)cccc2Cl)n1 [Example 223, (S)-N-(2-(2-chloro-6-methylphenoxy)-6-(1,5-dimethyl-6-oxo-1,6-dihydropyridin-3-yl)pyrimidin-4-yl)pentane-2-sulfonamide] |
| < 500 | CC[C@H](C)S(=O)(=O)Nc1cc(-c2ccc(=O)n(C)c2)nc(Oc2c(F)cccc2Cl)n1 [Example 206, Butane-(2S)-sulfonic acid [2-(2-chloro-6-fluoro-phenoxy)-6-(1-methyl-6-oxo-1,6-dihydro-pyridin-3-yl)-pyrimidin-4-yl]-amide] |
